Experiment [1] has as its target T1, human MR (Homo sapiens, UniProt P08235).
T1 construct: The full length human MR gene is cloned from a human kidney or human brain cDNA library; made in house; host or cells: SF9 insect cells (baculovirus)
T1 sequence (P08235 1-984): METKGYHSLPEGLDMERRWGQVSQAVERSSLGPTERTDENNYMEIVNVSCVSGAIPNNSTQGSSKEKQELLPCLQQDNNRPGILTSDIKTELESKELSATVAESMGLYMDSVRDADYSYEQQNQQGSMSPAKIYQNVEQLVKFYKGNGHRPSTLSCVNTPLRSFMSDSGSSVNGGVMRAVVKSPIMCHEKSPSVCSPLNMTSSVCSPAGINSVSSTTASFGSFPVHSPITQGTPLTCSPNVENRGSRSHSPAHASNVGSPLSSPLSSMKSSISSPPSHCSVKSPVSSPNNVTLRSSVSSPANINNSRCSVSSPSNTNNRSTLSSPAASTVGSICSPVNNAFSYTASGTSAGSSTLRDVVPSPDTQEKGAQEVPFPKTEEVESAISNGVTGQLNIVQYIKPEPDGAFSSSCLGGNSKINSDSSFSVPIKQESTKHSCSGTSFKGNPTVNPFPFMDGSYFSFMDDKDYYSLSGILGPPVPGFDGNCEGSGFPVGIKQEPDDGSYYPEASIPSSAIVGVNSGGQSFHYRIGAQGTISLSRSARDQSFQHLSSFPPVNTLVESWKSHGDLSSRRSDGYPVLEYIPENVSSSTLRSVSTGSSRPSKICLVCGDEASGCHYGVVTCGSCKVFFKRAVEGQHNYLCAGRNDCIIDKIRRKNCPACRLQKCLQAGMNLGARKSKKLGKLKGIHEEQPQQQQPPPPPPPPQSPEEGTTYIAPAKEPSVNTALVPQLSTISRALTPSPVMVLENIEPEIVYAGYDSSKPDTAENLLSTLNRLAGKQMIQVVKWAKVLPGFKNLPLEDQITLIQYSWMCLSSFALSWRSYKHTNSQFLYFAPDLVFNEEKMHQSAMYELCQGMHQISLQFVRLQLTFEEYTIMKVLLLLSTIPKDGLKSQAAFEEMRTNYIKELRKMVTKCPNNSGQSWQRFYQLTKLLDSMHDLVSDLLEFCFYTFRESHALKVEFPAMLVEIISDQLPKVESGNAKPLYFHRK
Kind of experiment: Mineralocorticoid Receptor Binding Assay (Method 1). The following applies: [3H]-aldosterone, racemic mixture unless otherwise indicated. As for the experimental part: The full length human MR gene is cloned from a human kidney or human brain cDNA library. Briefly, using synthetic oligonucleotide primers (Eli Lilly and Company, Indianapolis) directed to nucleotides 20-54 and 3700-3666 of the human MR, polymerase chain reaction (PCR) is performed under standard conditions using a human cDNA library. The PCR reaction is performed in a final volume of 50 μl containing about 1 μl of a 50× stock solution of polymerase; about 1 μl of a 50× stock solution of dNTP; about 5 μl of an appropriate PCR buffer; about 1 μl of each primer; about 5 μl of a H. kidney or H. brain cDNA library; and about 36 μl of water. The reaction is allowed to denature for about 30 seconds at 95 degrees Celsius, anneal for about 30 seconds at 55 degrees Celsius, and extend for about 5 minutes at 72 degrees Celsius, the sequence being repeated for a total of about 35 cycles. The desired PCR product (3.68 Kb) is confirmed by gel electrophoresis and subsequently cut from the gel and stored at about −20 degrees Celsius until extraction. To extract the cDNA product from the agarose gel, the QIAEX II Gel Extraction protocol (QIAGEN, Inc.) is employed according to the manufacturer's instructions. Following extraction, the MR cDNA is cloned into an appropriate cloning vector (Zero Blunt TOPO PCR Cloning Kit (Invitrogen, Inc.) and a pAcHLT-baculovirus transfer vector (B.D./Pharminogen), then expressed in SF9 insect cells, essentially according to manufacturer's instructions. Sf9 cells are grown at a scale where gram quantity cell pellets are obtained for subsequent use in the MR binding assay. Harvested cell pellets are lysed by repeated freeze-thaw cycles (about 4) in a suitable lysis buffer then centrifuged at about 1×10^3 G (with the supernatant being saved for future assays).
MR binding assays are performed in a final total volume of about 250 μl containing about 20-25 μg of protein and 0.5 nM of [^3H]-aldosterone plus varying concentrations of test compound or vehicle. The assay binding buffer consists of 30 mM sodium molybdate, 30 mM of TRIS-HCl, 5 mM sodium phosphate, 5 mM sodium pyrophosphate, and about 10% glycerol, pH=7.5.
Briefly, assays are prepared at RT in 96-well Falcon 3072 plates, each well containing 210 μl of binding buffer, 10 μl of [^3H]-aldosterone, 10 μl of test compound/vehicle, and 20 μl of the resuspended receptor protein extract. Incubations are carried out at 4 degrees Celsius with shaking for about 16 hours. 200 μl aliquots of each incubation are filtered onto Millipore HA 0.45 micron 96-well filter plates, pre-moistened with cold 30 mM TRIS-HCl. The filter plates are suctioned dry with vacuum and immediately washed 3× with cold 30 mM TRIS-HCl. The plates are then punched out and the amount of receptor-ligand complex is determined by liquid scintillation counting using 4 ml of Ready Protein Plus™ liquid scintillation cocktail.
IC50 values (defined as the concentration of test compound required to decrease [^3H]-aldosterone binding by 50%) are then determined. Ki values for each respective test compound can then be calculated by application of the Cheng-Prusoff equation as described in Cheng et al., Relationship Between The Inhibition Constant (Ki) and The Concentration of Inhibitor Which Causes 50% Inhibition (IC50) of an Enzymatic Reaction, Biochem. Pharmacol., 22: 3099-31088; (1973).

Experiment [2] concerns the target T2, human GR (glucocorticoid receptor) (Homo sapiens, UniProt P04150).
T2 construct: expressed in transfected cells; host or cells: 293 cells
T2 sequence (P04150 1-777): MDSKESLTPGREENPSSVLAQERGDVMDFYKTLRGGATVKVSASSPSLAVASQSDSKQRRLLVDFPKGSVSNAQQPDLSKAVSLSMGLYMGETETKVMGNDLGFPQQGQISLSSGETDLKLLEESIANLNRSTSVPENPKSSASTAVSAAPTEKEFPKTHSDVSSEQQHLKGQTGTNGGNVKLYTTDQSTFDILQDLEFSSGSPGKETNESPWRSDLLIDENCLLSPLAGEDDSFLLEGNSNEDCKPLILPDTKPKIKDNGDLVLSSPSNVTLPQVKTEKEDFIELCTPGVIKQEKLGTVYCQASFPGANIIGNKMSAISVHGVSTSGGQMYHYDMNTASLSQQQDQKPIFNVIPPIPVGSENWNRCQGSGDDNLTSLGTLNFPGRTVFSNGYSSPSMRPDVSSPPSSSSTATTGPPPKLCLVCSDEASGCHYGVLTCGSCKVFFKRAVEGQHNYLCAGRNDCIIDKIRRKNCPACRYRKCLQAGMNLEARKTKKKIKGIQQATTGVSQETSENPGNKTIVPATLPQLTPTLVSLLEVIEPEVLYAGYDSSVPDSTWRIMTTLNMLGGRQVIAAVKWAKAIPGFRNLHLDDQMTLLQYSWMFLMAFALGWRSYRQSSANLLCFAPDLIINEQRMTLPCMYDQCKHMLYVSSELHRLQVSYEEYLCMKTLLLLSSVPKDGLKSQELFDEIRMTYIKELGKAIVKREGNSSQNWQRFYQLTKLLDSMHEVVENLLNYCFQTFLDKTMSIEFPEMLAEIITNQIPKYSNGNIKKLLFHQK
Briefly: Alternative Binding Assay Protocol (Method 2), GR. The following applies: 3H-dexamethasone, 293-GR lysate, racemic mixture unless otherwise indicated. As for the experimental part:
Cell lysates from 293 cells overexpressing human GR (glucocorticoid receptor), AR (androgen receptor), MR (mineralocorticoid receptor) or PR (progesterone receptor) are used for competition binding assays to determine Ki values for test compounds. Briefly, competition binding assays are run in a buffer containing 20 mM Hepes, pH 7.6, 0.2 mM EDTA, 75 mM NaCl, 1.5 mM MgCl2, 20% glycerol, 20 mM sodium molybdate, 0.2 mM DTT, 20 ug/ml aprotinin and 20 ug/ml leupeptin, using either 0.3 nM ^3H-dexamethasone for GR binding, 0.36 nM ^3H-methyltrienolone for AR binding, 0.25 nM ^3H-aldosterone for MR binding, or 0.29 nM ^3H-methyltrienolone for PR binding, and either 20 ug 293-GR lysate, 22 ug 293-AR lysate, 20 ug 293-MR lysate or 40 ug 293-PR lysate per well. Competing compounds are added at various concentraions in half-log increments. Non-specific binding is determined in the presence of 500 nM dexamethasone for GR binding, 500 nM aldosterone for MR binding, or 500 nM methyltrienolone for AR and PR binding,. The binding reaction (140 μl) is incubated for overnight at […], then 70 μl of cold charcoal-dextran buffer (containing per 50 ml of assay buffer, 0.75 g of charcoal and 0.25 g of dextran) is added to each reaction. Plates are mixed 8 minutes on an orbital shaker at 4° C. Plates are then centrifuged at 3,000 rpm at 4° C. for 10 minutes. An aliquot of 120 μl of the mix is transferred to another 96-well plate and 175 μl of Wallac Optiphase “Hisafe 3” scintillation fluid is added to each well. Plates are sealed and shaken vigorously on an orbital shaker. After an incubation of 2 hrs, plates are read in a Wallac Microbeta counter. The data is used to calculate an IC50 and % Inhibition at 10 μM. The Kd for ^3H-dexamethasone for GR binding, ^3H-methyltrienolone for AR binding, ^3H-aldosterone for MR binding, or ^3H-methyltrienolone for PR binding, is determined by saturation binding. The IC50 values for compounds are converted to Ki using Cheng-Prusoff equation and the Kd determined by saturation binding assay.

Experiment [3] concerns patients suffering from advanced CHF. The following applies: in combination with standard CHF therapy; cited from earlier work.

The source of these data is patent US20070185161A1, “Bicyclic substituted indole-derivative steroid hormone nuclear receptor modulators” (priority 2004, published 2007).

In the case of `CC1(c2c[nH]c3c(NS(C)(=O)=O)cccc23)CCCc2cc(F)cc(F)c21` (racemic) [Example 30, N-[3-(6,8-Difluoro-1-methyl-1,2,3,4-tetrahydro-naphthalen-1-yl)-1H-indol-7-yl]-methanesulfonamide], the Ki in experiment [1] was at most 500 nM.

With `CC1(c2c[nH]c3c(NS(C)(=O)=O)cccc23)CCCc2cc(F)cc(F)c21` (single isomer, unassigned) [Example 30A, N-[3-(6,8-Difluoro-1-methyl-1,2,3,4-tetrahydro-naphthalen-1-yl)-1H-indol-7-yl]-methanesulfonamide], in experiment [1], the Ki is at most 500 nM.

For the compound `CC1(c2c[nH]c3c(NS(C)(=O)=O)cccc23)CCCc2cc(F)cc(F)c21` (single isomer, unassigned) [Example 30B, N-[3-(6,8-Difluoro-1-methyl-1,2,3,4-tetrahydro-naphthalen-1-yl)-1H-indol-7-yl]-methanesulfonamide], the Ki in experiment [1] is at most 500 nM.

In the case of `CCC1(c2c[nH]c3c(NS(C)(=O)=O)cccc23)CCCc2cc(F)cc(F)c21` (single isomer, unassigned) [Example 31A, N-[3-(1-Ethyl-6,8-difluoro-1,2,3,4-tetrahydro-naphthalen-1-yl)-1H-indol-7-yl]-methanesulfonamide], the Ki in experiment [1] was at most 500 nM.

As for `CCC1(c2c[nH]c3c(NS(C)(=O)=O)cccc23)CCCc2cc(F)cc(F)c21` (single isomer, unassigned) [Example 31B, N-[3-(1-Ethyl-6,8-difluoro-1,2,3,4-tetrahydro-naphthalen-1-yl)-1H-indol-7-yl]-methanesulfonamide], the Ki in experiment [1] was at most 500 nM.

Turning to `CCC1(c2c[nH]c3ccccc23)CCc2cc(F)ccc21` (centres unmarked) [Example 6, 3-(1-Ethyl-5-fluoro-indan-1-yl)-1H-indole], in experiment [1], the Ki is at most 500 nM.

`CCC1(c2c[nH]c3c(F)cccc23)CCc2cc(F)ccc21` (centres unmarked) [Example 7, 3-(1-Ethyl-5-fluoro-indan-1-yl)-7-fluoro-1H-indole]: in experiment [1], the Ki was at most 500 nM.

Turning to `CCC1(c2c[nH]c3c(Br)cccc23)CCc2cc(F)ccc21` (centres unmarked) [Example 8, 7-Bromo-3-(1-ethyl-5-fluoro-indan-1-yl)-1H-indole], the Ki in experiment [1] was at most 500 nM.

For `CCC1(c2c[nH]c3c(Cl)cccc23)CCc2cc(F)ccc21` (centres unmarked) [Example 9, 7-Chloro-3-(1-ethyl-5-fluoro-indan-1-yl)-1H-indole], in experiment [1], the Ki is at most 500 nM.

Turning to `CCc1cccc2c(C3(CC)CCc4cc(F)ccc43)c[nH]c12` (centres unmarked) [Example 10, 7-Ethyl-3-(1-ethyl-5-fluoro-indan-1-yl)-1H-indole], in experiment [1], the Ki is at most 1000 nM.

For `CCC1(c2c[nH]c3c(OC)cccc23)CCc2cc(F)ccc21` (centres unmarked) [Example 12, 3-(1-Ethyl-5-fluoro-indan-1-yl)-7-methoxy-1H-indole], the Ki in experiment [1] was at most 500 nM.

Turning to `CN(C)CCCC1(c2c[nH]c3c(NS(C)(=O)=O)cccc23)CCc2cc(F)ccc21` (centres unmarked) [Example 43, N-{3-[1-(3-Dimethylamino-propyl)-5-fluoro-indan-1-yl]-1H-indol-7-yl}-methanesulfonamide], the inhibitory constant (Ki) in experiment [2] is at most 10000 nM.

For the compound `CC(=O)S[C@@H]1CC2=CC(=O)CC[C@]2(C)[C@H]2CC[C@@]3(C)[C@@H](CC[C@@]34CCC(=O)O4)[C@H]12` [spironolactone], in experiment [3], the “reduced cardiac related mortality” value is 30% and the “reduced frequency of hospitalization” value is recorded as 35%.
